Reference: PubChem BioAssay AID1996
Converted amounts (≈) assume the structure as drawn.

conditions: buffer; pH 7.4; 200.0 µM

Row | Structure (SMILES) | solubility kinetic
1 | N#Cc1cnc(Nc2ccc(F)cc2)nc1N | 4.7 µg/mL (≈ 20.5 µM)
2 | Cn1cccc1C(=O)OCc1ccc(F)cc1 | < 0.5 µg/mL
3 | Cc1cccc2c1NC(=O)C21OCC(CO)([N+](=O)[O-])CO1 (stereo unspecified) | 24.8 µg/mL (≈ 84.3 µM)
4 | CC(C)c1ccc(/C=C2\SC(N3CCOCC3)=NC2=O)cc1 | 29.9 µg/mL (≈ 94.5 µM)
5 | O=C(O)CCCCCNC(=O)c1ccc(C(=O)NCCCCCC(=O)O)cc1 | 53.9 µg/mL (≈ 137 µM)
6 | Cc1cccc(NS(=O)(=O)c2ccc3[nH]c(=O)cc(C(=O)O)c3c2)c1 | 48.2 µg/mL (≈ 134 µM)
7 | O=C(CN1CCN(c2ccc([N+](=O)[O-])cc2Cl)CC1)N1CCOCC1 | 54.9 µg/mL (≈ 149 µM)
8 | O=C(C1CCCO1)N1CCN(C(=S)NC2CC2)CC1 (stereo unspecified) | > 42.5 µg/mL
9 | C/C(=C\c1ccc(F)cc1)C(=O)c1c(C)cc(C)[nH]c1=O | 35.6 µg/mL (≈ 125 µM)
10 | Cc1onc(-c2ccccc2Cl)c1C(=O)N(C)Cc1ccccc1 | > 51.1 µg/mL
11 | COc1ccc(CC(=O)N/N=C/c2cccs2)cc1OC | > 45.7 µg/mL
12 | CC(C)CN(C(=O)CN(C)CC(=O)Nc1ccccc1C#N)c1c(N)n(CC(C)C)c(=O)[nH]c1=O | > 72.5 µg/mL
13 | CCOC(=O)c1c(NC(=O)CN2CCCCC2)sc(C)c1C | < 0.3 µg/mL
14 | Cc1cc(C2CC(=O)Nc3ccccc3S2)c(C)s1 (stereo unspecified) | < 0.6 µg/mL
15 | COc1ccc(Cl)cc1NC(=S)NCc1cccs1 | 37.3 µg/mL (≈ 119 µM)
16 | O=C(O)CCc1[nH]c2ccccc2c1Sc1ccccc1 | > 44.6 µg/mL
17 | CCOc1ccc(N2CC(C(=O)NCc3ccccn3)CC2=O)cc1 (stereo unspecified) | 37.5 µg/mL (≈ 110 µM)
18 | Cc1cc(C)c(S(=O)(=O)N2CCCc3ccccc32)c(C)c1 | 1.8 µg/mL (≈ 5.71 µM)
19 | COc1ccc(NC(=O)C2CC2)cc1OC1CCCC1 | 16 µg/mL (≈ 58.1 µM)
20 | CC(C)(C)c1ccccc1NC(=S)NC1CCCC1 | 30.9 µg/mL (≈ 112 µM)
21 | COC(=O)c1ccc(COc2ccc(NC(C)=O)cc2)o1 | > 43.4 µg/mL
22 | O=C(/C=C/c1cc(Br)ccc1F)OCC(=O)N1CCOCC1 | > 55.8 µg/mL
23 | O=C(Nc1ccc(Cl)cc1)N1CCCC(Cn2cccc2)C1 (stereo unspecified) | > 47.7 µg/mL
24 | COC(=O)C1CCN(CC(=O)NC(=O)Nc2ccccc2F)CC1 | > 50.6 µg/mL
25 | Cc1ccc2cc(CCNC(=O)CCCc3ccccc3)c(=O)[nH]c2c1 | 2.2 µg/mL (≈ 6.31 µM)

Row | Structure (SMILES) | solubility kinetic
26 | CC(=O)Nc1ccc(OCC(=O)Nc2ccc(Cl)c(S(=O)(=O)N3CCOCC3)c2)cc1 | 10.7 µg/mL (≈ 22.9 µM)
27 | COc1ccccc1NC(=S)NCc1ccc(Cl)cc1 | 33 µg/mL (≈ 108 µM)
28 | Cc1cc(C)c(S(=O)(=O)Nc2ncccc2C)c(C)c1 | 2.1 µg/mL (≈ 7.23 µM)
29 | O=C(CCCN1C(=O)c2cccc3cccc(c23)C1=O)NCc1ccco1 | 1.5 µg/mL (≈ 4.14 µM)
30 | COc1cc2c(cc1OC)CN(CC(=O)Nc1ccc(F)cc1F)CC2 | 44 µg/mL (≈ 121 µM)
31 | Cc1ccc(-c2nsc(SCC(=O)NCC3CCCO3)n2)cc1 (stereo unspecified) | > 52.4 µg/mL
32 | CCOC(=O)c1cn(C2CC2)c2c(F)c(F)c(F)cc2c1=O | 42.7 µg/mL (≈ 137 µM)
33 | CCOc1ccccc1NC(=O)COC(=O)c1nc2nccc(C)n2n1 | > 53.3 µg/mL
34 | CCC1CCCCN1C(=O)CCS(=O)(=O)c1ccccc1 (stereo unspecified) | > 46.4 µg/mL
35 | O=C(NC(c1ccccc1)c1ccccc1)c1ccc(CO)cc1 | 44.2 µg/mL (≈ 139 µM)
36 | CC(=O)Oc1ccc(C(=O)NCc2ccc3c(c2)OCO3)cc1 | 29.1 µg/mL (≈ 92.9 µM)
37 | O=C1CCC([N+](=O)[O-])C(c2cccc3ccccc23)N1 (stereo unspecified) | > 40.5 µg/mL
38 | CN1CCc2c(OCC(=O)N3CCCc4ccccc43)cccc2C1=O | > 52.6 µg/mL
39 | CCC(=O)Oc1ccc(NC(=O)c2ccco2)cc1 | > 38.9 µg/mL
40 | Cl.N=c1sccn1CC(=O)Nc1ccc(Cl)cc1[N+](=O)[O-] | 44.4 µg/mL
41 | O=C(Nc1cccc(Cl)c1)c1cnccn1 | 26.5 µg/mL (≈ 113 µM)
42 | CCOC(=O)c1c(C)noc1-c1ccc(Br)o1 | < 0.6 µg/mL
43 | O=[N+]([O-])c1ccc(OCCO)nc1 | 26.7 µg/mL (≈ 145 µM)
44 | COc1ccc(S(=O)(=O)N2CCN(C(=O)N(C)C)C2C)cc1 (stereo unspecified) | > 49.1 µg/mL
45 | CCOc1ccc(S(=O)(=O)n2cnc3ccccc32)cc1 | 42.4 µg/mL (≈ 140 µM)
46 | CC1(C)CC(=O)c2sc(NS(=O)(=O)c3ccc(Cl)cc3)nc2C1 | > 55.6 µg/mL
47 | CCOC(=O)C1CCN(Cc2cc(Cl)c3ccccc3c2O)CC1 | 6.2 µg/mL (≈ 17.8 µM)
48 | O=c1[nH]c(O)c(/C=C2\C=Nc3ccc(Br)cc32)[nH]1 | 3.3 µg/mL (≈ 10.8 µM)
49 | CN(C)C(CNC(=O)CCOc1ccccc1)c1ccco1 (stereo unspecified) | 43 µg/mL (≈ 142 µM)
50 | N#Cc1ccccc1NC(=S)Nc1ccc(F)cc1 | 35.1 µg/mL (≈ 129 µM)

Row | Structure (SMILES) | solubility kinetic
51 | Nc1nc(Nc2ccc(Cl)cc2)nc(NCc2ccco2)c1[N+](=O)[O-] | 1 µg/mL (≈ 2.77 µM)
52 | CC1CN(c2ccc([N+](=O)[O-])cn2)CC(C)O1 (stereo unspecified) | > 35.6 µg/mL
53 | O=C(CN1C(=O)COc2ccc(Cl)cc21)Nc1ccccn1 | 17 µg/mL (≈ 53.5 µM)
54 | COc1ccc(N2C(=O)C(F)(F)C2c2ccccc2F)cc1 (stereo unspecified) | 0.8 µg/mL (≈ 2.6 µM)
55 | Cc1nc(N(C)C)c2sc(=S)n(Cc3ccccc3)c2n1 | < 0.2 µg/mL
56 | COc1ccccc1NC(=O)C1=C(C)NC(=O)NC1c1ccco1 (stereo unspecified) | > 49.1 µg/mL
57 | CCOCCn1c(N2CCCC2)nc2c1c(=O)[nH]c(=O)n2C | 45.2 µg/mL (≈ 147 µM)
58 | O=C(Cn1ccc([N+](=O)[O-])n1)NCc1cccnc1 | > 39.2 µg/mL
59 | CC(=O)c1c(C)[nH]c(C(=O)N2CCN(c3ccccn3)CC2)c1C | 42.4 µg/mL (≈ 130 µM)
60 | CC[C@H](C)[C@H](NC(N)=O)C(=O)Nc1ccc(NC(C)=O)cc1 | > 46 µg/mL
61 | CC1CN(C(=O)c2cccc(Oc3ccccc3)c2)CC(C)O1 (stereo unspecified) | > 46.7 µg/mL
62 | CCOCCCNC(=O)c1c[nH]c2c(CC)cccc2c1=O | > 45.4 µg/mL
63 | Cc1ccc(OCCNC(=O)c2cc(=O)[nH]c3ccccc23)cc1 | 2 µg/mL (≈ 6.2 µM)
64 | COc1ccc(C(=O)NC(C)C2CC3CCC2C3)cc1 (stereo unspecified) | 8.1 µg/mL (≈ 29.6 µM)
65 | COc1cc(CCC(=O)N2CC(C)OC(C)C2)cc(OC)c1OC (stereo unspecified) | > 50.6 µg/mL
66 | C#CC1CCCCC1NC(=O)Nc1cnccc1C(F)(F)F (stereo unspecified) | 43.2 µg/mL (≈ 139 µM)
67 | Cc1cccc(NC(=O)CCN2CCCCC2)c1.Cl | > 42.4 µg/mL
68 | Cc1cc(C)c(OCCCn2ccnc2)c(C)c1 | 27.2 µg/mL (≈ 111 µM)
69 | O=C(O)C1C2CCC(C2)C1C(=O)Nc1ccc(Cl)c(Cl)c1 (stereo unspecified) | < 0.7 µg/mL
70 | Cc1ccc(SCCNCc2ccco2)cc1.Cl | 27.9 µg/mL
71 | COc1ccc(C(=O)NCCc2c[nH]c3ccccc23)cc1OC | 32 µg/mL (≈ 98.6 µM)
72 | Cc1cc(C(=O)Nc2ccccc2C)on1 | > 32.4 µg/mL
73 | CCn1cc(CCCC(=O)NCc2cccnc2)c2ccccc21 | > 48.2 µg/mL
74 | O=C(/C=C/c1ccc(Cl)c(Cl)c1)N1CCOCC1 | 35.5 µg/mL (≈ 124 µM)
75 | O=C1NC(=O)C(c2ccccc2)(c2ccc(O)cc2)N1 (stereo unspecified) | > 40.2 µg/mL

Row | Structure (SMILES) | solubility kinetic
76 | CCOC(=O)COc1nc2c(c(-c3ccco3)c1C#N)CCc1ccccc1-2 | 1.5 µg/mL (≈ 4.01 µM)
77 | CC(C)CCn1c(N2CCCC2)nc2c1c(=O)[nH]c(=O)n2C | > 45.8 µg/mL
78 | CC(C)(CN1CCCC1)NS(=O)(=O)c1ccc(Cl)cc1 | > 47.5 µg/mL
79 | COc1ccc(C(=O)NCC(=O)NCc2ccncc2)cc1 | > 44.9 µg/mL
80 | O=C(Nc1nccs1)c1ccc(N2C(=O)[C@@H]3[C@H](C2=O)[C@H]2C=C[C@@H]3C2)cc1 | 6.1 µg/mL (≈ 16.7 µM)
81 | Cc1ccc(C(=O)Nc2nccc(C)n2)cc1 | 21.9 µg/mL (≈ 96.4 µM)
82 | O=C(NCCN1CCOCC1)c1c(Cl)cccc1Cl | 44.9 µg/mL (≈ 148 µM)
83 | CCOc1ccc(C(=O)CCC(=O)Nc2ncccc2O)cc1 | > 47.2 µg/mL
84 | C=C(C)Cn1c(CCNC(=O)c2ccco2)nc2ccccc21 | > 46.4 µg/mL
85 | CC(C)[C@H](NC(=O)c1ccccc1)C(=O)NC1CCCCCCC1 | 1.8 µg/mL (≈ 5.45 µM)
86 | O=C(Nc1cccc(Cl)c1)NC1CC2CCC1C2 (stereo unspecified) | 1.1 µg/mL (≈ 4.15 µM)
87 | COCCCn1c(SCC(=O)c2ccccc2)nc2ccccc2c1=O | 1.1 µg/mL (≈ 2.99 µM)
88 | O=C(Nc1cc(Cl)ccc1Cl)c1ccco1 | 7.6 µg/mL (≈ 29.7 µM)
89 | Cc1cc(NC(=O)c2cccc(C)c2[N+](=O)[O-])no1 | < 0.2 µg/mL
90 | O=c1[nH]c2ccc(NS(=O)(=O)c3ccc(F)c(Cl)c3)cc2[nH]1 | 7.5 µg/mL (≈ 21.9 µM)
91 | COc1cc(OC)cc(C(=O)NCC(=O)OC2CCCCC2=O)c1 (stereo unspecified) | > 50.3 µg/mL
92 | Cc1ccc(C)c(NC(=S)N2CCCCC2CO)c1 (stereo unspecified) | > 41.8 µg/mL
93 | CCC1C(=O)C(CC)C(c2ccccc2)NC1c1ccccc1 (stereo unspecified) | 4.3 µg/mL (≈ 14 µM)
94 | CC1(C)COC2(OC1)C(=O)Nc1ccccc12 | > 35 µg/mL
95 | COc1cc(C(=O)O)nc(OC)n1 | > 27.6 µg/mL
96 | O=C(COc1ccc2cc(Br)ccc2c1Br)N1CCOCC1 | 13.9 µg/mL (≈ 32.4 µM)
97 | CC1(C)CC(=O)C=C(Nc2ccc(Cl)cc2)C1 | 34.2 µg/mL (≈ 137 µM)
98 | O=C(CC1CCCCC1)NCc1ccc(Cl)cc1 | 2.4 µg/mL (≈ 9.03 µM)
99 | COc1ccc(NC(=O)CCOc2cc(C)ccc2C)cc1S(=O)(=O)N1CCCCC1 | 7.9 µg/mL (≈ 17.7 µM)
100 | Cc1cc(C(=O)OC(C)C(=O)NC2CCCCC2)c(C)o1 (stereo unspecified) | 15.7 µg/mL (≈ 53.5 µM)

Row | Structure (SMILES) | solubility kinetic
101 | COc1ccccc1/C=C/c1ccc2cccc(O)c2n1 | 11.2 µg/mL (≈ 40.4 µM)
102 | CNC(=O)c1ccccc1Sc1ccccc1CO | 40.3 µg/mL (≈ 147 µM)
103 | Cc1nc(N)ncc1C(=O)Nc1ccccc1 | 19 µg/mL (≈ 83.2 µM)
104 | OC(CN1CCN(Cc2ccccc2)CC1)c1ccc(Br)cc1 (stereo unspecified) | 8.1 µg/mL (≈ 21.6 µM)
105 | CNC(=O)COC(=O)CCC(=O)c1ccc(Cl)cc1 | 36.2 µg/mL (≈ 128 µM)
106 | Cc1cccc(OC(C)C(=O)NC2CCS(=O)(=O)C2)c1C (stereo unspecified) | 46.4 µg/mL (≈ 149 µM)
107 | O=C(CNC(=O)c1cccc(F)c1)NC1CC1 | > 35.4 µg/mL
108 | O=C1C(Cc2ccc(O)cc2)NC(=S)N1C1CCCCC1 (stereo unspecified) | 44.9 µg/mL (≈ 147 µM)
109 | CC1CN(C(=S)NC(=O)c2ccc(Cl)cc2)CC(C)O1 (stereo unspecified) | > 46.9 µg/mL
110 | Cc1cccc(C(=O)Nc2cccc(C(=O)NC3CCCC3)c2)c1 | 23.6 µg/mL (≈ 73.2 µM)
111 | CN1C(=O)C2(OCCCO2)c2cc(Cl)ccc21 | > 38.1 µg/mL
112 | O=C(NCc1cccc(F)c1F)C1CCC(=O)N(C2CC2)C1 (stereo unspecified) | 38.1 µg/mL (≈ 124 µM)
113 | CN(C)CCOC1c2ccccc2-c2ccccc21.O=C(O)C(=O)O | > 51.5 µg/mL
114 | O=C(NCCCCc1ccccc1)c1ccc(F)cc1 | 1.4 µg/mL (≈ 5.16 µM)
115 | Cc1ccc(C(=O)C(C)OC(=O)Cn2c(C)csc2=O)cc1 (stereo unspecified) | > 47.9 µg/mL
116 | Cc1cccc2c1NC1(CCCC1)CC2C.Cl (stereo unspecified) | < 0.5 µg/mL
117 | NC(=Nc1ccccc1)c1ccccc1 | > 29.4 µg/mL
118 | NC(=O)C1CCN(C(=O)CNC(=O)c2ccc(F)cc2)CC1 | > 46.1 µg/mL
119 | COc1ccc(S(=O)(=O)N2CCCCCC2)cc1N | > 42.7 µg/mL
120 | Cc1cc(=O)[nH]c2ccc(S(=O)(=O)Nc3ccccc3)cc12 | 3.4 µg/mL (≈ 10.8 µM)
121 | CC(C)(C)c1ccc(S(=O)(=O)N2CCNC(=O)C2)cc1 | 42 µg/mL (≈ 142 µM)
